For assay [1], the target named is T1, Excitatory amino acid transporter 3 (Homo sapiens) (UniProt P43005).
T1 sequence (whole entry): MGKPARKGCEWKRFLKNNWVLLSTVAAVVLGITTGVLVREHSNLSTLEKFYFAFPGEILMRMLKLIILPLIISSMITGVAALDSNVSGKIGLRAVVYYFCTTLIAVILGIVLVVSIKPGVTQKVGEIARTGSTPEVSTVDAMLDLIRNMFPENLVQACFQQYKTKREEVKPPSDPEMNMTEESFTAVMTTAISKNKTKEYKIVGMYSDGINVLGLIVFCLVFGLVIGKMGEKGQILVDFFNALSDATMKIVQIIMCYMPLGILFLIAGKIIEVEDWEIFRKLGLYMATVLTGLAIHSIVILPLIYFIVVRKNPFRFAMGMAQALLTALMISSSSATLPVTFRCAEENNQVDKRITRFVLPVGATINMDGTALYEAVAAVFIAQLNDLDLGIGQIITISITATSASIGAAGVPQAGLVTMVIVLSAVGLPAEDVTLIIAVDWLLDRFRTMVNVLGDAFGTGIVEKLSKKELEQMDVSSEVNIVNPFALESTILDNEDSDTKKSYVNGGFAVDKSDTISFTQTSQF
Kind of assay: Substrate activity at human EAAT3 expressed in HEK293 cells at 1000 uM relative to glutamate by FLIPR membrane potential assay. It counts as functional, cell-based.

Assay [2] has as its target Excitatory amino acid transporter 1 (Homo sapiens) (UniProt P43003). Description: Substrate activity at human EAAT1 expressed in HEK293 cells at 1000 uM relative to glutamate by FLIPR membrane potential assay. It counts as functional, cell-based.
For assay [3] the target is unchanged. Kind of assay: Substrate activity at human EAAT1 expressed in HEK293 cells relative to glutamate by FLIPR membrane potential assay. It counts as functional, cell-based.
The target is the same in assay [4]. Description: Substrate activity at human EAAT1 expressed in HEK293 cells by FLIPR membrane potential assay. It counts as functional, cell-based.
Assay [5] concerns the target Excitatory amino acid transporter 2 (Homo sapiens) (UniProt P43004). The following applies: HEK293.
Description: Substrate activity at human EAAT2 expressed in HEK293 cells by FLIPR membrane potential assay
Assay [6] addresses T1, Excitatory amino acid transporter 3 (Homo sapiens). Description: Substrate activity at human EAAT3 expressed in HEK293 cells by FLIPR membrane potential assay. It counts as functional, cell-based.

The values that follow come from ChEMBL document CHEMBL1137310, “Stereoselective chemoenzymatic synthesis of the four stereoisomers of l-2-(2-carboxycyclobutyl)glycine and pharmacological characterization at human excitatory amino acid transporter subtypes 1, 2, and 3” (J Med Chem, 2006).

Excitatory amino acid transporter 1 (Homo sapiens), sequence (P43003 whole entry): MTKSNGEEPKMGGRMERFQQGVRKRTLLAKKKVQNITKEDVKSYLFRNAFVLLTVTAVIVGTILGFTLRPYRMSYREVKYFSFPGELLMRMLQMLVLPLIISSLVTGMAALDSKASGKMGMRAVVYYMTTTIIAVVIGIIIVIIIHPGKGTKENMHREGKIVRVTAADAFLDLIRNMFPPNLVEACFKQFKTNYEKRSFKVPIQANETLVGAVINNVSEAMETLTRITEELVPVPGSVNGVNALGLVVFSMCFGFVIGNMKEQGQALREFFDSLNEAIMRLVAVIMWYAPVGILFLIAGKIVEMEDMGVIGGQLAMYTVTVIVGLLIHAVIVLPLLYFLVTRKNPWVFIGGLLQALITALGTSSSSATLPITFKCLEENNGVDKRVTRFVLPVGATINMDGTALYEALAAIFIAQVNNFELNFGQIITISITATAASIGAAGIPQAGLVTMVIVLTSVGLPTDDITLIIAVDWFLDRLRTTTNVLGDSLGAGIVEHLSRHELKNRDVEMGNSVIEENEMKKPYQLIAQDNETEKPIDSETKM
Excitatory amino acid transporter 2 (Homo sapiens), sequence (P43004 whole entry): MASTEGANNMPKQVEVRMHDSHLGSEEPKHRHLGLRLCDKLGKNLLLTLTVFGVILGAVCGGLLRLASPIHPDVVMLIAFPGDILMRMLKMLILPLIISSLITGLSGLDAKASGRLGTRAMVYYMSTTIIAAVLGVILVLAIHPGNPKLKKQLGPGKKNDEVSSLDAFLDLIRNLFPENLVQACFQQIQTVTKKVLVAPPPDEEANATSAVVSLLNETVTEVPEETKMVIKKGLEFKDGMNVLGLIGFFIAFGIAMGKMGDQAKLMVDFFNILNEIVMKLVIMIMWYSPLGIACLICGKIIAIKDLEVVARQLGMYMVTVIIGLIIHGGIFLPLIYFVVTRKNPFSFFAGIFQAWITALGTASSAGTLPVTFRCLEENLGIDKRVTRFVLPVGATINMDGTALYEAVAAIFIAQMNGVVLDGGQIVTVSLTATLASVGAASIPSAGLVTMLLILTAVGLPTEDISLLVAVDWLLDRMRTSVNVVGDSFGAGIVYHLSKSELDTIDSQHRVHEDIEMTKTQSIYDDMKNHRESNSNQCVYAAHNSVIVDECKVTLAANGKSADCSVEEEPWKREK

Take `N[C@H](C(=O)O)[C@H]1CC[C@@H]1C(=O)O`: the Activity in assay [1] is 48%; in assay [2] it was 72%.

Regarding `N[C@H](C(=O)O)[C@@H]1CC[C@H]1C(=O)O`, the Activity in assay [3] was determined as 94%. Further, in assay [4], the pKm amounted to 4.

As to `N[C@@H](CCC(=O)O)C(=O)O`, the pKm in assay [5] was 4.7; in assay [6], 5; in assay [4], 5.1.
